Results on 15 compounds are retold here after ChEMBL document CHEMBL5126509, “Dual target inhibitors based on EGFR: Promising anticancer agents for the treatment of cancers (2017-)” (Eur J Med Chem, 2022).

The IC50 is the concentration at which inhibition is half-maximal. A word on the Ki: it is a dissociation constant, usually derived from enzyme kinetics or from competition with a known ligand.

Experiment [1] concerns the target T1, Epidermal growth factor receptor (Homo sapiens, UniProt P00533). The experiment in a line: Inhibition of EGFR (unknown origin) incubated for 30 mins in presence of ATP by fluorescence based analysis.
Experiment [2] has as its target Tyrosine-protein kinase CSK (Homo sapiens, UniProt P41240). The experiment in a line: Inhibition of CSK (unknown origin) by ADP-Glo kinase assay.
The target of experiment [3] is T1, Epidermal growth factor receptor. The experiment in a line: Inhibition of EGFR (unknown origin) by ADP-Glo kinase assay. A general note: ADP-Glo first removes unused ATP, then detects ADP through luciferase.
The target of experiment [4] is Fibroblast growth factor receptor 1 (Homo sapiens, UniProt P11362). The experiment in a line: Inhibition of N-terminal GST-tagged recombinant wild type human FGFR1 (398 to 822 residues) expressed in baculovirus infected Sf21 cells incubated for 1 hr in presence of ATP by caliper mobility shift assay.
The test system of experiment [5] is NCI-H1975. The experiment in a line: Antiproliferative activity against human NCI-H1975 cells assessed as cell growth inhibition incubated for 72 hrs by MTS assay. Type of experiment: functional, cell-based. Particulars: NCI-H1975, 72 h. In general terms: Tetrazolium dyes change colour on reduction, which living cells bring about.
The target of experiment [6] is T2, Epidermal growth factor receptor (Homo sapiens, UniProt P00533, T790M). The experiment in a line: Inhibition of human EGFR T790M mutant expressed in baculovirus expression system using CAGAGAIETDKEYYTVKD as substrate preincubated for 10 mins followed by substrate and ATP addition measured after 1 hr by TR-FRET assay.
The target of experiment [7] is T1, Epidermal growth factor receptor. The experiment in a line: Inhibition of human EGFR expressed in baculovirus expression system using CAGAGAIETDKEYYTVKD as substrate preincubated for 10 mins followed by substrate and ATP addition measured after 1 hr by TR-FRET assay. On the technique in general: In TR-FRET formats the signal depends on donor and acceptor labels being close together.

Experiment [8] deals with MCF7. The experiment in a line: Antiproliferative activity against human MCF7 assessed as cell growth inhibition measured after 72 hrs by MTT assay. Type of experiment: functional, cell-based. Particulars: MCF7, 72 h.
A further experiment deals with Tubulin. The experiment in a line: Inhibition of tubulin polymerization in human HCT-116 cells incubated for 18 to 24 hrs by horseradish peroxidase based ELISA method. The format is cell-based.
Experiment [9] has as its system HCT-116. The experiment in a line: Antiproliferative activity against human HCT-116 assessed as cell growth inhibition measured after 72 hrs by MTT assay. Conditions: HCT-116, 72 h. The format is functional, cell-based.
In experiment [10] the target is T1, Epidermal growth factor receptor. The experiment in a line: Inhibition of EGFR (unknown origin).
Another experiment has as its system A-431. The experiment in a line: Antiproliferative activity against human A-431 cells assessed as cell growth inhibition. The format is functional, cell-based.
For the next experiment, the system named is SK-BR-3. The experiment in a line: Antiproliferative activity against human SK-BR-3 cells assessed as cell growth inhibition. The format is functional, cell-based.
The target of experiment [11] is Insulin-like growth factor 1 receptor (Homo sapiens, UniProt P08069). The experiment in a line: Inhibition of IGF1R (unknown origin).
The next experiment has as its target Histone deacetylase. The experiment in a line: Inhibition of HDAC in human HeLa cell nuclear extract using Boc-Lys (acetyl)-AMC as substrate preincubated for 5 mins followed by substrate addition measured after 30 mins by microplate reader analysis. Type of experiment: cell-free.
Another experiment relates to MDA-MB-468. The experiment in a line: Antiproliferative activity against human MDA-MB-468 cells assessed as cell growth inhibition measured after 72 hrs by MTT assay. Type of experiment: functional, cell-based. Particulars: MDA-MB-468, 72 h.
A further experiment concerns MDA-MB-231. The experiment in a line: Antiproliferative activity against human MDA-MB-231 cells assessed as cell growth inhibition measured after 72 hrs by MTT assay. Type of experiment: functional, cell-based. Conditions: MDA-MB-231, 72 h.
The test system of another experiment is HeLa. The experiment in a line: Antiproliferative activity against human HeLa cells assessed as cell growth inhibition measured after 72 hrs by MTT assay. Type of experiment: functional, cell-based.
In the next experiment the test system is A549. The experiment in a line: Antiproliferative activity against human A549 cells assessed as cell growth inhibition measured after 72 hrs by MTT assay. Type of experiment: functional, cell-based. Conditions: A549, 72 h.
Another experiment has as its system KG-1. The experiment in a line: Antiproliferative activity against human KG-1 cells assessed as cell growth inhibition measured after 72 hrs by MTT assay. Conditions: KG-1, 72 h. Type of experiment: functional, cell-based.
In experiment [12] the target is T3, Vascular endothelial growth factor receptor 2 (Homo sapiens, UniProt P35968). The experiment in a line: Inhibition of VEGFR-2 (unknown origin) using FAM-labeled peptide as substrate incubated for 10 mins in presence of ATP by caliper mobility shift assay.
The subject of experiment [13] is MCF7. The experiment in a line: Antiproliferative activity against human MCF7 cells assessed as cell growth inhibition incubated for 42 hrs by MTT assay. The format is functional, cell-based. Particulars: MCF7, 42 h.
The target in experiment [14] is T1, Epidermal growth factor receptor. The experiment in a line: Inhibition of EGFR (unknown origin) using FAM-labeled peptide as substrate incubated for 10 mins in presence of ATP by caliper mobility shift assay.
Experiment [15] deals with HCT-116. The experiment in a line: Antiproliferative activity against human HCT-116 cells assessed as cell growth inhibition incubated for 42 hrs by MTT assay. Type of experiment: functional, cell-based. Conditions: HCT-116, 42 h.
Another experiment concerns B16. The experiment in a line: Antiproliferative activity against mouse B16 cells assessed as cell growth inhibition incubated for 42 hrs by MTT assay. The format is functional, cell-based. Particulars: B16, 42 h.
The target of experiment [16] is Hepatocyte growth factor receptor (Homo sapiens, UniProt P08581). The experiment in a line: Inhibition of c-MET (unknown origin) incubated for 1 hr by Z-lyte kinase assay.
The target in experiment [17] is T2, Epidermal growth factor receptor. The experiment in a line: Inhibition of EGFR T790M mutant (unknown origin) incubated for 1 hr by Z-lyte kinase assay.
The target of experiment [18] is Epidermal growth factor receptor (Homo sapiens, UniProt P00533, L858R/T790M). The experiment in a line: Inhibition of EGFR L858R/T790M mutant (unknown origin).
For experiment [19], the target named is T2, Epidermal growth factor receptor. The experiment in a line: Inhibition of EGFR T790M mutant (unknown origin).
Experiment [20] has as its system NCI-H1975. The experiment in a line: Antiproliferative activity against human NCI-H1975 cells assessed as cell growth inhibition. The format is functional, cell-based.
For experiment [21], the target named is T3, Vascular endothelial growth factor receptor 2. The experiment in a line: Inhibition of VEGFR2 (unknown origin).
Experiment [22] has as its target Platelet-derived growth factor receptor beta (Homo sapiens, UniProt P09619). The experiment in a line: Binding affinity to GST-tagged human recombinant PDFGR beta expressed in baculovirus infected Sf9 insect cells assessed as inhibition constant using poly(Ala,Glu,Lys,Tyr) 6:2:5.1 as substrate incubated for 60 mins in presence of [gamma33P]ATP by microplate scintillation counter analysis.

Experiment [23] has as its target T1, Epidermal growth factor receptor. The experiment in a line: Binding affinity to GST-tagged human recombinant EGFR expressed in baculovirus infected Sf9 insect cells assessed as inhibition constant using poly(Glu,Tyr) 4:1 as substrate incubated for 60 mins in presence of [gamma33P]ATP by microplate scintillation counter analysis.

Sequence of Hepatocyte growth factor receptor (P08581 whole entry): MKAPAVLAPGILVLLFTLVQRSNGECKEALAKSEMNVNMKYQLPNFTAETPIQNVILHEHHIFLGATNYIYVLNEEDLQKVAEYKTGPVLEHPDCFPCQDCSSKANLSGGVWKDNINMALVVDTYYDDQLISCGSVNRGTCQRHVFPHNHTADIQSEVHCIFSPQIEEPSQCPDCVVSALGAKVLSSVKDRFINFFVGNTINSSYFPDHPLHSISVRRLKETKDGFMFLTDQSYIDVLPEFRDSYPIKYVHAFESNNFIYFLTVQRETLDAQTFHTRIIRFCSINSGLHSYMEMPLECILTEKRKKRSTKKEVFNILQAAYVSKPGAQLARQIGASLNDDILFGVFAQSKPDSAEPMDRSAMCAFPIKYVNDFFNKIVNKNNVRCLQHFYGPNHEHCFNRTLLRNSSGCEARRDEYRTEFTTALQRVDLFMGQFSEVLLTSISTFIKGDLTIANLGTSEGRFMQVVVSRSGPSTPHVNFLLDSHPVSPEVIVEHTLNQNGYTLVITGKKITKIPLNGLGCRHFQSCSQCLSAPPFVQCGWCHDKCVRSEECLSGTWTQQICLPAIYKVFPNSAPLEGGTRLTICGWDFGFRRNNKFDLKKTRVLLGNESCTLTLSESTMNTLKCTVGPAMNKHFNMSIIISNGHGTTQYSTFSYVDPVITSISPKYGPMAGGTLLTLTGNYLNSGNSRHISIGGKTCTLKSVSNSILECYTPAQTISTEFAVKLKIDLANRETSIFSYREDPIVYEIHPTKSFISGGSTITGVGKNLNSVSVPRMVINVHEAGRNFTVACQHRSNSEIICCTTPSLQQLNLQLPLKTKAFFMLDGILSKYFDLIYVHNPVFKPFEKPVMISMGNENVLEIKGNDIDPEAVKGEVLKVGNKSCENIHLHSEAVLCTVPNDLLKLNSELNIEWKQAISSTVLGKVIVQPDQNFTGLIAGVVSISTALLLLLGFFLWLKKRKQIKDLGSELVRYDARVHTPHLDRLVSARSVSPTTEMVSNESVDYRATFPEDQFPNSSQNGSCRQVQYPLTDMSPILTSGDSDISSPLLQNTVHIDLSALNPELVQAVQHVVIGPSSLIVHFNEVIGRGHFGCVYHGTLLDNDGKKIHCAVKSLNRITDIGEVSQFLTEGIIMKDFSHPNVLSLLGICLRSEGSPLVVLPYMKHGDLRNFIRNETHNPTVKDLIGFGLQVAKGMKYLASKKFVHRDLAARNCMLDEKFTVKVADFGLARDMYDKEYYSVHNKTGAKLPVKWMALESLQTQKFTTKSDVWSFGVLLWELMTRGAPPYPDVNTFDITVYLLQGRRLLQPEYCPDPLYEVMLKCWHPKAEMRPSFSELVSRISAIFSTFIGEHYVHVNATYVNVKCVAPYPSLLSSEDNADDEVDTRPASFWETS
T1 sequence (P00533 whole entry): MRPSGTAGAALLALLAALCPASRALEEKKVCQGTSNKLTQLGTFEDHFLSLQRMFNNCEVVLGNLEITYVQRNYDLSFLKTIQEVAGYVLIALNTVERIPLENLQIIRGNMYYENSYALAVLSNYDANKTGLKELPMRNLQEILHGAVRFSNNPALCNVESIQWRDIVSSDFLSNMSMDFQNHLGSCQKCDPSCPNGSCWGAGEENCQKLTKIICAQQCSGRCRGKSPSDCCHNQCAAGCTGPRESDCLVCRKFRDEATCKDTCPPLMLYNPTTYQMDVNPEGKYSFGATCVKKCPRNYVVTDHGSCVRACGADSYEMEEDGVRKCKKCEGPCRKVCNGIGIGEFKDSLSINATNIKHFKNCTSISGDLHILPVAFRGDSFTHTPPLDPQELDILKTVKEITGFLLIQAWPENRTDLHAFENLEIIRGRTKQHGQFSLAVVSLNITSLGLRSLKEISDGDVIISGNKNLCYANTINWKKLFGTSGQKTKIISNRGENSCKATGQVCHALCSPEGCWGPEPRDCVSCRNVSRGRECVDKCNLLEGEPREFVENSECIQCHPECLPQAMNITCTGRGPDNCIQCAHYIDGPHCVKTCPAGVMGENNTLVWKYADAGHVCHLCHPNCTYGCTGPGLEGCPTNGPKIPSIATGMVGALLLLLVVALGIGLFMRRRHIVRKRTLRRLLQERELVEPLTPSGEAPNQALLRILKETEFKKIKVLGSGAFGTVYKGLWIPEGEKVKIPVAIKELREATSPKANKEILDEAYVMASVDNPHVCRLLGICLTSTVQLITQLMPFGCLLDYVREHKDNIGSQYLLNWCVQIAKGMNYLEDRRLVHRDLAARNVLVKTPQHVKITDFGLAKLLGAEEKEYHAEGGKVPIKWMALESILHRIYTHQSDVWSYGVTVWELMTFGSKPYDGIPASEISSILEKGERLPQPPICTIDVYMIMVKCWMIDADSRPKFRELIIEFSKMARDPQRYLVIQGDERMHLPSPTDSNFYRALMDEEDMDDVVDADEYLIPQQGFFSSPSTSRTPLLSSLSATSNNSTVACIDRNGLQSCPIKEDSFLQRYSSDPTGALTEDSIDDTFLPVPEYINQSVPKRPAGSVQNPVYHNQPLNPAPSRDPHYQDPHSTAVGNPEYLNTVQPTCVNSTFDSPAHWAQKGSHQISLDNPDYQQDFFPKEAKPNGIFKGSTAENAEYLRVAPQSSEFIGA
T2 sequence (P00533 25-1210 T790M limits assumed): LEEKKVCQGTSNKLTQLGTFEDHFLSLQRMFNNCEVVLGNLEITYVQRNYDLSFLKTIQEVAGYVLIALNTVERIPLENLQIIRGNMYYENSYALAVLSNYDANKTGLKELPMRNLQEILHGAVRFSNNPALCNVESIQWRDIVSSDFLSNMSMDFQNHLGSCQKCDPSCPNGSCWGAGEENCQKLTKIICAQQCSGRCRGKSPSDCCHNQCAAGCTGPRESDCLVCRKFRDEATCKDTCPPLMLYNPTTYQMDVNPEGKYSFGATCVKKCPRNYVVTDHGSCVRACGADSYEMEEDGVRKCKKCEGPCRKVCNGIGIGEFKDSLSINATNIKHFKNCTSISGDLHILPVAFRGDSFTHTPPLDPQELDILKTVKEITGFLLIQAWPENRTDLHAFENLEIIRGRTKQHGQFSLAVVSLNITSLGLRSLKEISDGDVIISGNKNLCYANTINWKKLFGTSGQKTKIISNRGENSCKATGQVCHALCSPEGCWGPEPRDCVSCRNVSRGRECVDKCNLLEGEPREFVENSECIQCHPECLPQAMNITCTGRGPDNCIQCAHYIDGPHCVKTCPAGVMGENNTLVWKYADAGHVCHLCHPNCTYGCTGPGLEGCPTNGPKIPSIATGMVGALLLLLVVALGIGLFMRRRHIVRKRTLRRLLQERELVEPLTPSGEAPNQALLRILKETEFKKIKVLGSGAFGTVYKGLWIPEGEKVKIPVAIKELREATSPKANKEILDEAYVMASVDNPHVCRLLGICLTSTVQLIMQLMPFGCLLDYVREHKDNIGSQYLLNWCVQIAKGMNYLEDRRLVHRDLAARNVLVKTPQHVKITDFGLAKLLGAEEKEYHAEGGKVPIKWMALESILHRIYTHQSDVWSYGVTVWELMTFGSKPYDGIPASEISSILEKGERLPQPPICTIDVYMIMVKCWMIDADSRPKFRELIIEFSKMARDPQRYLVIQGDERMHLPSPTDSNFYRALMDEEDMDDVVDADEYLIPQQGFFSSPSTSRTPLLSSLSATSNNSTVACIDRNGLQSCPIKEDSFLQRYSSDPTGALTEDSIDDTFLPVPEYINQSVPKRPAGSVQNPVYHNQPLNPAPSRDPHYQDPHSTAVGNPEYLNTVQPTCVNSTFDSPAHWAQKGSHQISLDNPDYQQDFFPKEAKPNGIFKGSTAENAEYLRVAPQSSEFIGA
T3 sequence (P35968 whole entry): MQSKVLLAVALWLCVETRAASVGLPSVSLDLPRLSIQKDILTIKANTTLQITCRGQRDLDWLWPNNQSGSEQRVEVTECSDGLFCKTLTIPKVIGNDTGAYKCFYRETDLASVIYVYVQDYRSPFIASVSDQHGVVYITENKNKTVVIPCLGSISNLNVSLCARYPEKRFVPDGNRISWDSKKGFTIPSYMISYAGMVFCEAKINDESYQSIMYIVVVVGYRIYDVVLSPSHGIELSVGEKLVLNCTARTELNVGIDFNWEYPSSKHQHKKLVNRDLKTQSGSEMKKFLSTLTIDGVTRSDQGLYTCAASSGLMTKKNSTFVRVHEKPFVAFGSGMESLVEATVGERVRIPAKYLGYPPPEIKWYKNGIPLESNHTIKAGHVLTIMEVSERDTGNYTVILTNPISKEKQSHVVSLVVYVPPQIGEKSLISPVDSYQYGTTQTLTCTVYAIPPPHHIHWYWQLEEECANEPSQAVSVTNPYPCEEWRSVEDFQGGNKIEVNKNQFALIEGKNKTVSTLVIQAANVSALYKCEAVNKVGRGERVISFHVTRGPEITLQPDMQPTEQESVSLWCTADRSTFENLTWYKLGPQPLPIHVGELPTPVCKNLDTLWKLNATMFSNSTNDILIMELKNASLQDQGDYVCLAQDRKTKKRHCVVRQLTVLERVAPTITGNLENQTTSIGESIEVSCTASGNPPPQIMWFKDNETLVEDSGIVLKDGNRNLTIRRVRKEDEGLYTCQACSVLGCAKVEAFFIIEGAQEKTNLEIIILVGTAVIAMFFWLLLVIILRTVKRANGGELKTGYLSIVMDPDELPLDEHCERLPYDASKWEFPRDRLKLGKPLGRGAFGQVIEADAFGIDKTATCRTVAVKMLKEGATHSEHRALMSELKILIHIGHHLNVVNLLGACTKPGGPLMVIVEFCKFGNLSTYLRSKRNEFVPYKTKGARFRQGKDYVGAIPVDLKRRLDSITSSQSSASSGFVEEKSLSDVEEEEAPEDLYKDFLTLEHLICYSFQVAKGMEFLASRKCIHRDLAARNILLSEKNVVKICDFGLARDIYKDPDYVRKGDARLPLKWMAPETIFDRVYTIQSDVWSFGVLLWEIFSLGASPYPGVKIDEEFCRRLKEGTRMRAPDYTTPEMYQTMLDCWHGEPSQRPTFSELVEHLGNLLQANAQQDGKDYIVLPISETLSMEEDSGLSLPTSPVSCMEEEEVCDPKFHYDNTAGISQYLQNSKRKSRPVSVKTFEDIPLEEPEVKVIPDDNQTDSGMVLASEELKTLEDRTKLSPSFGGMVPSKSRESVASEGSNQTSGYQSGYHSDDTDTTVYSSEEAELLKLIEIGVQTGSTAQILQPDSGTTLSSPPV

For the compound `Cc1nn(-c2ccc(F)cc2)c2ncnc(Nc3ccc(F)c(Cl)c3)c12`, the IC50 in experiment [1] is 186 nM.
For `COc1ccc(CCOc2ccc(C(=O)/C=C/c3ccc(O)c(O)c3)cc2OC)cc1OC`, the IC50 in [2] turned out to be 5.16 µM; in experiment [3] it was 11.1 µM.
`CN1CCN(c2ccc(Nc3ncc(Br)c(Nc4ccc5cn[nH]c5c4)n3)cc2)CC1`: the values for the IC50 (in experiment [4]; in the experiment on NCI-H1975 [5]) were 17.6 nM and 336 nM, respectively.
With `O=C(Cc1ccccc1)Nc1cccc(-c2nc3n(c2-c2ccnc(Nc4ccc(N5CCOCC5)cc4)n2)CCS3)c1`, the half-maximal inhibitory concentration (IC50) in experiment [6] was found to be 66 nM; in experiment [7], 35.5 nM.
Regarding `CCc1nnc2c(Nc3ccc(C(=O)/C=C/c4cc(OC)c(OC)c(OC)c4)cc3)nc3ccccc3n12`, the results for the IC50 in the experiment with MCF7 [8], at Tubulin and in the experiment on HCT-116 [9] were 1650 nM, 8.84 µM and 3.61 µM, respectively.
`CCOc1cc2ncc(C#N)c(Nc3ccc(OCc4ccccc4)cc3)c2cc1NC(=O)/C=C/c1cccnc1`: the IC50 in [10] is 597 nM; with A-431, 1890 nM; in the experiment with SK-BR-3, 1930 nM; in [11], 908 nM.
On to `COc1cc(NC(=O)CCCCCCC(=O)NO)ccc1Nc1nccc(-c2cn(C)c3ccccc23)n1`, for which the IC50 against Histone deacetylase came to 85 nM; in the experiment on MDA-MB-468, 230 nM; in the experiment with MDA-MB-231, 600 nM; in the experiment on HeLa it was 1850 nM; with A549 it was 2190 nM; in the experiment with KG-1, 420 nM.
As for `COc1cc2ncnc(Sc3cccc(NC(=S)Nc4ccc(Br)c(C(F)(F)F)c4)c3)c2cc1OC`, the 50% inhibitory concentration (IC50) amounted to 80 nM in experiment [12]; 5.57 µM in the experiment with MCF7 [13]; 10 nM in experiment [14]; 5.57 µM in the experiment with HCT-116 [15]; 5.57 µM in the experiment on B16.
As for `CC(C)c1ccc(Cn2cc(-c3cc(-c4ccc(Br)cc4)nc(N)n3)c3ccccc32)cc1`, the figures for the half-maximal inhibitory concentration (IC50) in experiment [16] and in [17] were 595 nM and 94 nM, respectively.
With `C=CC(=O)Nc1cc2c(Nc3ccc(Br)cc3F)ncnc2cc1OCCNC(=O)CN(C)C`, the IC50 in [10] was determined as 2 nM; in the experiment on A-431, 14 nM; in [18], 3 nM; in [19] it was 11 nM; with NCI-H1975 [20] it was 130 nM; in [21], 103 nM.
Turning to `Nc1nc(Nc2ccc(COc3cccc(F)c3)cc2)c2c(n1)[nH]c1ccc(O)cc12`, the Ki worked out at 81 nM in experiment [22] and 170 nM in [23].
With `CCc1ccc(Cn2cc(-c3cc(-c4ccc(Br)cc4)nc(N)n3)c3ccccc32)cc1`, the IC50 in [16] was found to be 518 nM; in [17] it was 97 nM.
The matching figures for `Nc1nc(-c2ccc(Br)cc2)cc(-c2cn(Cc3cccc(Cl)c3)c3ccccc23)n1`: 101 nM and 195 nM.
As to `COc1cc2ncnc(Oc3cccc(NC(=S)Nc4ccc(Cl)c(C(F)(F)F)c4)c3)c2cc1OC`, the 50% inhibitory concentration (IC50) amounted to 50 nM in [12]; 5.57 µM with MCF7 [13]; 20 nM in experiment [14]; 5.57 µM with HCT-116 [15]; 5.57 µM in the experiment on B16.
On to `CCOc1cc2ncc(C#N)c(Nc3ccc(OCc4ccccn4)c(Cl)c3)c2cc1NC(=O)/C=C/CN(C)C` [NERATINIB], for which, in the experiment on A-431, the half-maximal inhibitory concentration (IC50) worked out at 2150 nM.
